Source: ChEMBL document CHEMBL1201862, “PubChem BioAssay data set” (2004)
Active and inactive are the calls of the source.

Experiments:
HEK293 [1] = test: cells; details: Homo sapiens
HEK293 [2] = test: cells; details: Homo sapiens; remark: listed apart in the source
[3] = molecular target: Voltage-gated inwardly rectifying potassium channel KCNH2 (Homo sapiens, UniProt Q12809); details: Potency;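 also: confirmatory quantitative high-throughput screen measuring inhibition of hERG channel activity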
Voltage-gated inwardly rectifying potassium channel KCNH2, sequence (Q12809 whole entry): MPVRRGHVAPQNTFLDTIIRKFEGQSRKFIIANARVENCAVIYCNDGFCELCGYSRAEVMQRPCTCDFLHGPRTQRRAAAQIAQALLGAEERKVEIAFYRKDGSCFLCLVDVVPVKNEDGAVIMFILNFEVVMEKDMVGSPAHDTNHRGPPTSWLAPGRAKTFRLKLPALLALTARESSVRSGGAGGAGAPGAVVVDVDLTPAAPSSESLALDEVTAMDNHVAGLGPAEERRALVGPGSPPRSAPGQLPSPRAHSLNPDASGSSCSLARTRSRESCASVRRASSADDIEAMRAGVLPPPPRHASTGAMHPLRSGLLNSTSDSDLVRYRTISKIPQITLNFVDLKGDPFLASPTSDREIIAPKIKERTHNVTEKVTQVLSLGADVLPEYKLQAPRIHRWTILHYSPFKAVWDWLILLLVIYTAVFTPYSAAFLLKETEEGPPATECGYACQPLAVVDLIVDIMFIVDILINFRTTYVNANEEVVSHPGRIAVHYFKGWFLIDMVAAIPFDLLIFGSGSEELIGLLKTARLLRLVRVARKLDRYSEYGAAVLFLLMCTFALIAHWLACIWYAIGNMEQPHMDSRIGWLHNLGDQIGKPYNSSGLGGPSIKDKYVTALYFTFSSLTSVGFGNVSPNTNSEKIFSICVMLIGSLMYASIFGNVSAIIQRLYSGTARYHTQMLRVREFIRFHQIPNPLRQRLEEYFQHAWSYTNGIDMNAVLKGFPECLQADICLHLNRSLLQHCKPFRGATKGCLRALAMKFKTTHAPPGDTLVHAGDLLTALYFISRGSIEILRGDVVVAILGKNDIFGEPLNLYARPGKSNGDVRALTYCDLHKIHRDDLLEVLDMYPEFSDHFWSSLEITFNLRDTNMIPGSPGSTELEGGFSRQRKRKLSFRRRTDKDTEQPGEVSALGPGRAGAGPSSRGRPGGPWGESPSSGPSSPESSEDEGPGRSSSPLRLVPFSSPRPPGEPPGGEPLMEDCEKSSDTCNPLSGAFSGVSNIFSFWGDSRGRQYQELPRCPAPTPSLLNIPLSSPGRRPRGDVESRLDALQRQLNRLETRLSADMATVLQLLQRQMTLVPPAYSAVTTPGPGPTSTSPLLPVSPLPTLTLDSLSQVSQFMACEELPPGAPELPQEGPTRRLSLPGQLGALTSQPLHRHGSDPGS

Cytochrome P450 2C9 [4] = molecular target: T1, Cytochrome P450 2C9 (Homo sapiens, UniProt P11712)
T1 sequence (P11712 whole entry): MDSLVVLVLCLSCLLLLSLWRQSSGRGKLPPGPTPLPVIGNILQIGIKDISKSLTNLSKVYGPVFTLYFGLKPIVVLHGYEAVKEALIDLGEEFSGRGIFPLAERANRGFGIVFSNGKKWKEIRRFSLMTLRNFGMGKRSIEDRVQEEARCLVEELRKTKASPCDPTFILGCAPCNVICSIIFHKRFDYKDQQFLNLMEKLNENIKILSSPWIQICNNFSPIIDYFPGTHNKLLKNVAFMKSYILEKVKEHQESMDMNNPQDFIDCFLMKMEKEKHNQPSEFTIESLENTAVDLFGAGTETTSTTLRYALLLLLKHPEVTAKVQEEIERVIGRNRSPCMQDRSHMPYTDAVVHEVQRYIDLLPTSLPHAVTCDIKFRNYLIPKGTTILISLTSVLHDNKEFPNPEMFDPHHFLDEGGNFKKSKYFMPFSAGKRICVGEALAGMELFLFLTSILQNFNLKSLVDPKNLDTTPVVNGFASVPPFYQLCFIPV

Cytochrome P450 1A2 = molecular target: T2, Cytochrome P450 1A2 (Homo sapiens, UniProt P05177);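 also: PubChem cytochrome P450 panel assay, CYP1A2 panel member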
T2 sequence (P05177 whole entry): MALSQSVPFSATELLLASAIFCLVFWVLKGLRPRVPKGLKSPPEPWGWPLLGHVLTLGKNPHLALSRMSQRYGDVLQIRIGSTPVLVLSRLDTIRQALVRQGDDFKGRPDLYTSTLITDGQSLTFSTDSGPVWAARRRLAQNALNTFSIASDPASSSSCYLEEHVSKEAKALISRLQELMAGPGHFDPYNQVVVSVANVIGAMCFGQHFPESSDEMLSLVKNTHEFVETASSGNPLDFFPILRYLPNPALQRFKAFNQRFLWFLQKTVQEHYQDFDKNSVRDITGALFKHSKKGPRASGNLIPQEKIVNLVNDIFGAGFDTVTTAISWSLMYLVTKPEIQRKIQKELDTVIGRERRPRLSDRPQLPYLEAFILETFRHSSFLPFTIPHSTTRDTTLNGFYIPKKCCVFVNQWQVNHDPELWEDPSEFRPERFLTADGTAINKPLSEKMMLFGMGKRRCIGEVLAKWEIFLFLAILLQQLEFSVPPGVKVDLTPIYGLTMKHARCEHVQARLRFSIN

Cytochrome P450 2C9 [5] = molecular target: T1, Cytochrome P450 2C9; remark: listed apart in the source
[6] = molecular target: Induced myeloid leukemia cell differentiation protein Mcl-1 (Homo sapiens, UniProt Q07820); format: functional
Induced myeloid leukemia cell differentiation protein Mcl-1, sequence (Q07820 whole entry): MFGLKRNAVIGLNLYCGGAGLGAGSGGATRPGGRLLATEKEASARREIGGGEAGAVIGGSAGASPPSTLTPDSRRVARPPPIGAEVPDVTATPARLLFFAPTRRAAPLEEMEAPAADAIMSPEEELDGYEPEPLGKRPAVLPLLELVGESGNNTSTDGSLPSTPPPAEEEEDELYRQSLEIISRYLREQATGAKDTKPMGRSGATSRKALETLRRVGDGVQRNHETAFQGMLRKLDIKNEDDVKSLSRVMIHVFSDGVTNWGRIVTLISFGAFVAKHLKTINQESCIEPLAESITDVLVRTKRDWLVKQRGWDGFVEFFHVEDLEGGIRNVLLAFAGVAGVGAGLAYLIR

Cytochrome P450 2D6 = Cytochrome P450 2D6 (Homo sapiens, UniProt P10635);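 also: CYP2D6 member of a cytochrome P450 panel assay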
Cytochrome P450 2D6, sequence (P10635 whole entry): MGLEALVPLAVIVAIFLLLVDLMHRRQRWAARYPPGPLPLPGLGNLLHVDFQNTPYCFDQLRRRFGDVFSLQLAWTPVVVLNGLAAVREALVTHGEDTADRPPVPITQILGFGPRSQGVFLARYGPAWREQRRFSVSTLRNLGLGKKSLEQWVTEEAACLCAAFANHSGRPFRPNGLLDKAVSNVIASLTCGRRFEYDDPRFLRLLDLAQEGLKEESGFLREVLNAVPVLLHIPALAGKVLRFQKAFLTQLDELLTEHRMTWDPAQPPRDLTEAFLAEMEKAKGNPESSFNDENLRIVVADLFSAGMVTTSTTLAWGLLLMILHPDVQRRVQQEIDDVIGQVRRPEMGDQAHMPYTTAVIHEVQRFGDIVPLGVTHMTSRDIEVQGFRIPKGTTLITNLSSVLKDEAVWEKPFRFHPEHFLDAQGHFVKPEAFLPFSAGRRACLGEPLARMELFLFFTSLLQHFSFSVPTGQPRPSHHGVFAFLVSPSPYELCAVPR

Cytochrome P450 2C19 = Cytochrome P450 2C19 (Homo sapiens, UniProt P33261); test: Cytochrome panel assay with activity outcomes. Panel member name: p450-cyp2c19 Compounds with AC50 equal or less than 10 uM are considered active; format: functional; details: read-out: AC50
Cytochrome P450 2C19, sequence (P33261 whole entry): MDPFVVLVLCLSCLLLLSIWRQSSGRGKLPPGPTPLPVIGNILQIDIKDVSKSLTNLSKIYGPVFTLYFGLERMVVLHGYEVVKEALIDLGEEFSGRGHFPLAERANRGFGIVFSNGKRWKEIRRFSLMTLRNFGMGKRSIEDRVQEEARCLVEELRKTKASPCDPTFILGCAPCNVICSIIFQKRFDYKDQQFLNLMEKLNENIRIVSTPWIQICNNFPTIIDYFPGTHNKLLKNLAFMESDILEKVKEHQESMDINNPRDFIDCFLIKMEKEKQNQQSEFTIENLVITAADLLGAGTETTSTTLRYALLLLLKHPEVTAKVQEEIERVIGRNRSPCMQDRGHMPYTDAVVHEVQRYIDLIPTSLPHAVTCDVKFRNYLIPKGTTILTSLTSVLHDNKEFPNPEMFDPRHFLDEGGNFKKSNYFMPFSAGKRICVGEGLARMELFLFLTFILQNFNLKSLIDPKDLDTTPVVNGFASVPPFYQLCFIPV

[7] = molecular target: T3, Aryl hydrocarbon receptor (Homo sapiens, UniProt P35869); details: Potency;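 also: confirmatory quantitative high-throughput screen measuring activation of the AhR signaling pathway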
T3 sequence (P35869 whole entry): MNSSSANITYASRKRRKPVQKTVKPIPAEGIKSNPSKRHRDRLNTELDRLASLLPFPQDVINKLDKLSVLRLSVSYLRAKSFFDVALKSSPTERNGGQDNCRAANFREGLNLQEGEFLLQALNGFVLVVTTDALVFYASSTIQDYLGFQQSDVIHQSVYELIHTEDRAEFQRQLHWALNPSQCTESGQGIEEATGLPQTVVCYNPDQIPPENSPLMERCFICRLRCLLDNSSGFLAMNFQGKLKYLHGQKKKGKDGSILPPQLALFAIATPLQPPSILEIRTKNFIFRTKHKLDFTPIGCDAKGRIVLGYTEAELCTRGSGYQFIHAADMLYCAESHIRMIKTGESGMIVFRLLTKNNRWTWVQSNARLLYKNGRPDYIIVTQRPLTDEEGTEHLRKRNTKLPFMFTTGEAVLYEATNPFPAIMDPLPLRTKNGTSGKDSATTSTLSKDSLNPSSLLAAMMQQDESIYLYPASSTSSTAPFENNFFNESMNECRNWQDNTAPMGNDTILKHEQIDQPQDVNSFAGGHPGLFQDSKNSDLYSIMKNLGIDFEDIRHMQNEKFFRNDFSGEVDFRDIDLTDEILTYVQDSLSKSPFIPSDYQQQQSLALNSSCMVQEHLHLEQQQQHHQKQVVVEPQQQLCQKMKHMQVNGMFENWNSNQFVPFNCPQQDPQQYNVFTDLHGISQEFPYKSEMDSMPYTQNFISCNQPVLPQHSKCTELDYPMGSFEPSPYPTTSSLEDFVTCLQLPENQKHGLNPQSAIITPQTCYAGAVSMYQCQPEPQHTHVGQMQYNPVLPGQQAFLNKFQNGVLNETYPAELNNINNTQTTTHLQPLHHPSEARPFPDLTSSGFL

[8] = microbe, parasite or virus in culture; format: functional; details: Mycobacterium tuberculosis

Q: With `COc1ccc(CC(C)NCC(O)c2ccc(O)c(NC=O)c2)cc1` (centres undefined) as the compound, how does the EC50 (HEK293 [1]) read?
A: The EC50 was > 59.6 µM (inactive).

Q: And the EC50 (HEK293 [2])?
A: Its EC50 is > 59.6 µM (inactive).

Q: For `CCCCCCCCCCCCCC(=O)O[C@@H]1[C@@H](C)[C@@]2(O)[C@@H](C=C(CO)C[C@@]3(O)C(=O)C(C)=C[C@@H]23)C2C(C)(C)[C@@]21OC(C)=O` (some centres undefined), which AC50 [3] is on record?
A: Its AC50 is 0.112 µM (inconclusive).

Q: What does the source list for `CCCCCCN(CCCCCC)C(=O)Cc1c(-c2ccc(F)cc2)[nH]c2ccccc12`?
A: AC50 [3]: 8.91 µM (inconclusive); AC50 (Cytochrome P450 2C9 [4]): 5.01 µM (inconclusive); AC50 (Cytochrome P450 1A2): 15.8 µM (inconclusive)

Q: Which AC50 (Cytochrome P450 2C9 [5]) does the source give for `COc1ccc2[nH]c([S+]([O-])Cc3ncc(C)c(OC)c3C)nc2c1` (centres undefined) [OMEPRAZOLE] here?
A: Its AC50 is “inactive”.

Q: What about the IC50 [6] of the same compound?
A: The IC50 was 3.14 µM (active).

Q: What about the AC50 (Cytochrome P450 2D6) of the same compound?
A: The AC50 was “inactive”.

Q: And the AC50 (Cytochrome P450 2C19)?
A: Its AC50 is 2.51 µM (active).

Q: What about the AC50 (Cytochrome P450 1A2) of the same compound?
A: The AC50 was 31.6 µM (inconclusive).

Q: What about the AC50 [7] of the same compound?
A: The AC50 was 20 µM (inconclusive).

Q: Which CC50 [8] does the source give for `CCCCCC(O)c1cccc(OCc2ccc3ccccc3n2)c1` (centres undefined) [REV-5901] here?
A: The CC50 was > 40 µM (active).

Q: What about the AC50 [3] of the same compound?
A: The AC50 was 35.5 µM (inconclusive).
